Measured values from PubChem BioAssay (NCI).
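These data come from cells grown in 96-well plates and exposed to compound for 48 hours at five concentrations. GI50: concentration for 50% inhibition of growth. TGI: total growth inhibition.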

What was measured:
Assay in all cases: growth of human tumour cells (NCI), 48 h
[1] = system: SR leukemia
[2] = system: UACC-62 melanoma
[3] = system: SNB-75 CNS
[4] = system: OVCAR-5 ovarian
[5] = system: SN12C renal
[6] = system: RXF 393 renal
[7] = system: HOP-62 NSCLC
[8] = system: CCRF-CEM leukemia
[9] = system: NCI-H522 lung
[10] = system: DU-145 prostate
[11] = system: A498 renal
[12] = system: A549 NSCLC
[13] = system: OVCAR-8 ovarian
[14] = system: T-47D breast
[15] = system: NCI-H226 lung
[16] = system: NCI-H23 lung
[17] = system: HCT-15 colon
[18] = system: PC-3 prostate
[19] = system: HCT-116 colon
[20] = system: OVCAR-4 ovarian
[21] = system: MDA-MB-231 breast
[22] = system: UO-31 renal
[23] = system: ACHN renal
[24] = system: UACC-257 melanoma
[25] = system: SF-539 CNS
[26] = system: SW-620 colon
[27] = system: OVCAR-3 ovarian
[28] = system: IGROV1 ovarian
[29] = system: K-562 leukemia
[30] = system: COLO 205 colon
[31] = system: HOP-92 NSCLC
[32] = system: MALME-3M melanoma
[33] = system: RPMI-8226 leukemia
[34] = system: SK-MEL-2 melanoma
[35] = system: LOX IMVI melanoma
[36] = system: EKVX NSCLC
[37] = system: NCI-H460 lung
[38] = system: SK-OV-3 ovarian
[39] = system: SK-MEL-5 melanoma
[40] = system: HL-60(TB) leukemia
[41] = system: HCC-2998 colon
[42] = system: TK-10 renal
[43] = system: KM12 colon
[44] = system: HT29 colon
[45] = system: MOLT-4 leukemia
[46] = system: MDA-MB-435
[47] = system: BT-549 breast
[48] = system: SNB-19 CNS
[49] = system: MCF7 breast
[50] = system: CAKI-1 renal
[51] = system: SF-295 CNS
[52] = system: 786-0 renal
[53] = system: U251 CNS
[54] = system: SK-MEL-28 melanoma
[55] = system: SF-268 CNS
[56] = system: HS 578T breast
[57] = system: NCI/ADR-RES ovarian
[58] = system: M14 melanoma

SMILES: C[C@]12CC[C@H]3[C@@H](CC=C4C[C@@H](O)CC[C@@]43C)[C@@H]1CC[C@@H]2[C@](C)(O)CCc1cccnc1
- GI50 [1]: 2.95 µM
- TGI [1]: > 100 µM
- GI50 [2]: 3.19 µM
- TGI [2]: > 100 µM
- GI50 [3]: 2.92 µM
- TGI [3]: > 100 µM
- GI50 [4]: > 100 µM
- TGI [4]: > 100 µM
- GI50 [5]: 47.1 µM
- TGI [5]: > 100 µM
- GI50 [6]: 1.94 µM
- TGI [6]: 7.78 µM
- GI50 [7]: 9.27 µM
- TGI [7]: > 100 µM
- GI50 [8]: 4.1 µM
- TGI [8]: > 100 µM
- GI50 [9]: 2.09 µM
- TGI [9]: 7.79 µM
- GI50 [10]: 3.48 µM
- TGI [10]: > 100 µM
- GI50 [11]: 2.74 µM
- TGI [11]: 62.1 µM
- GI50 [12]: 4.44 µM
- TGI [12]: > 100 µM
- GI50 [13]: 4.82 µM
- TGI [13]: > 100 µM
- GI50 [14]: 2.09 µM
- TGI [14]: > 100 µM
- GI50 [15]: 3.7 µM
- TGI [15]: 55 µM
- GI50 [16]: 3.05 µM
- TGI [16]: > 100 µM
- GI50 [17]: 4.29 µM
- TGI [17]: > 100 µM
- GI50 [18]: 3.55 µM
- TGI [18]: > 100 µM
- GI50 [19]: 3.42 µM
- TGI [19]: > 100 µM
- GI50 [20]: 1.25 µM
- TGI [20]: > 100 µM
- GI50 [21]: 6.39 µM
- TGI [21]: > 100 µM
- GI50 [22]: 1.97 µM
- TGI [22]: > 100 µM
- GI50 [23]: 4.53 µM
- TGI [23]: > 100 µM
- GI50 [24]: 3.03 µM
- TGI [24]: > 100 µM
- GI50 [25]: 6.11 µM
- TGI [25]: > 100 µM
- GI50 [26]: 5.49 µM
- TGI [26]: > 100 µM
- GI50 [27]: 9.14 µM
- TGI [27]: > 100 µM
- GI50 [28]: 6.37 µM
- TGI [28]: > 100 µM
- GI50 [29]: 2.13 µM
- TGI [29]: > 100 µM
- GI50 [30]: 3.16 µM
- TGI [30]: > 100 µM
- GI50 [31]: 2.11 µM
- TGI [31]: > 100 µM
- GI50 [32]: 2.57 µM
- TGI [32]: 8.14 µM
- GI50 [33]: 1.88 µM
- TGI [33]: 49.9 µM
- GI50 [34]: 7.44 µM
- TGI [34]: > 100 µM
- GI50 [35]: 5.63 µM
- TGI [35]: > 100 µM
- GI50 [36]: 1.59 µM
- TGI [36]: > 100 µM
- GI50 [37]: 3.99 µM
- TGI [37]: > 100 µM
- GI50 [38]: 6.49 µM
- TGI [38]: > 100 µM
- GI50 [39]: 1.01 µM
- TGI [39]: 2.6 µM
- GI50 [40]: 2.42 µM
- TGI [40]: 7.04 µM
- GI50 [41]: 4.99 µM
- TGI [41]: > 100 µM
- GI50 [42]: 7.58 µM
- TGI [42]: > 100 µM
- GI50 [43]: 5.55 µM
- TGI [43]: > 100 µM
- GI50 [44]: 4.6 µM
- TGI [44]: > 100 µM
- GI50 [45]: 2.75 µM
- TGI [45]: 24 µM
- GI50 [46]: 4.6 µM
- TGI [46]: > 100 µM
- GI50 [47]: 1.69 µM
- TGI [47]: 6.55 µM
- GI50 [48]: 6.77 µM
- TGI [48]: > 100 µM
- GI50 [49]: 2.28 µM
- TGI [49]: > 100 µM
- GI50 [50]: 7.1 µM
- TGI [50]: > 100 µM
- GI50 [51]: 2.21 µM
- TGI [51]: 9.64 µM
- GI50 [52]: 5.76 µM
- TGI [52]: > 100 µM
- GI50 [53]: 6.5 µM
- TGI [53]: > 100 µM
- GI50 [54]: 4.27 µM
- TGI [54]: > 100 µM
- GI50 [55]: 5.3 µM
- TGI [55]: > 100 µM
- GI50 [56]: 3.41 µM
- TGI [56]: > 100 µM
- GI50 [57]: 3.43 µM
- TGI [57]: > 100 µM

SMILES: CC1=C2C(=C[C@@](C)(COC(=O)c3ccc(S(=O)(=O)F)cc3)[C@@H]2OC(=O)c2ccc(S(=O)(=O)F)cc2)C(=O)[C@](C)(O)C12CC2
- GI50 [1]: 0.48 µM
- TGI [1]: 10.2 µM
- GI50 [2]: 1.64 µM
- TGI [2]: 4 µM
- GI50 [3]: 1.35 µM
- TGI [3]: 2.66 µM
- GI50 [4]: 0.558 µM
- TGI [4]: 4.33 µM
- GI50 [5]: 1.73 µM
- TGI [5]: 11.5 µM
- GI50 [6]: 0.337 µM
- TGI [6]: 0.965 µM
- GI50 [7]: 1.46 µM
- TGI [7]: 5.88 µM
- GI50 [8]: 2.28 µM
- TGI [8]: 15.3 µM
- GI50 [9]: 0.474 µM
- TGI [9]: 2.1 µM
- GI50 [58]: 1.36 µM
- TGI [58]: 3.32 µM
- GI50 [10]: 0.373 µM
- TGI [10]: 5.48 µM
- GI50 [11]: 1.82 µM
- TGI [11]: 4.29 µM
- GI50 [12]: 3.04 µM
- TGI [12]: 9.27 µM
- GI50 [13]: 0.631 µM
- TGI [13]: 4.01 µM
- GI50 [14]: 1.23 µM
- TGI [14]: 4.5 µM
- GI50 [17]: 0.439 µM
- TGI [17]: 4.42 µM
- GI50 [18]: 1.07 µM
- TGI [18]: 11.3 µM
- GI50 [19]: 0.319 µM
- TGI [19]: 1.92 µM
- GI50 [20]: 1.78 µM
- TGI [20]: 7.51 µM
- GI50 [21]: 1.54 µM
- TGI [21]: 7.41 µM
- GI50 [22]: 0.815 µM
- TGI [22]: 3.22 µM
- GI50 [24]: 1.88 µM
- TGI [24]: 3.69 µM
- GI50 [25]: 1.56 µM
- TGI [25]: 3.96 µM
- GI50 [26]: 0.607 µM
- TGI [26]: 10.2 µM
- GI50 [27]: 0.549 µM
- TGI [27]: 3.9 µM
- GI50 [28]: 0.478 µM
- TGI [28]: 6.42 µM
- GI50 [29]: 0.733 µM
- TGI [29]: 13 µM
- GI50 [30]: 0.638 µM
- TGI [30]: 2.25 µM
- GI50 [31]: 2.11 µM
- TGI [31]: 5.62 µM
- GI50 [32]: 1.16 µM
- TGI [32]: 2.94 µM
- GI50 [33]: 3.34 µM
- TGI [33]: 17.5 µM
- GI50 [34]: 1.76 µM
- TGI [34]: 3.41 µM
- GI50 [35]: 1.15 µM
- TGI [35]: 6.38 µM
- GI50 [36]: 3.04 µM
- TGI [36]: 9.33 µM
- GI50 [37]: 0.206 µM
- TGI [37]: 0.48 µM
- GI50 [39]: 1.48 µM
- TGI [39]: 2.92 µM
- GI50 [40]: 0.433 µM
- TGI [40]: 3.14 µM
- GI50 [41]: 1.31 µM
- TGI [41]: 3.06 µM
- GI50 [42]: 2.75 µM
- TGI [42]: 6.87 µM
- GI50 [43]: 2.95 µM
- TGI [43]: 12.7 µM
- GI50 [44]: 0.406 µM
- TGI [44]: 6.4 µM
- GI50 [45]: 1.01 µM
- TGI [45]: 8.73 µM
- GI50 [46]: 1.48 µM
- TGI [46]: 3.71 µM
- GI50 [47]: 1.26 µM
- TGI [47]: 3.01 µM
- GI50 [48]: 2.54 µM
- TGI [48]: 14.2 µM
- GI50 [49]: 0.342 µM
- TGI [49]: 3.96 µM
- GI50 [50]: 0.466 µM
- TGI [50]: 10.8 µM
- GI50 [51]: 2.4 µM
- TGI [51]: 7.63 µM
- GI50 [52]: 1.4 µM
- TGI [52]: 4.68 µM
- GI50 [53]: 1.62 µM
- TGI [53]: 5.42 µM
- GI50 [54]: 1.71 µM
- TGI [54]: 3.88 µM
- GI50 [55]: 0.705 µM
- TGI [55]: 9.1 µM
- GI50 [56]: 2.37 µM
- TGI [56]: 6.63 µM
- GI50 [57]: 0.698 µM
- TGI [57]: 9.63 µM
